According to US8618067B2, “L-sugar colon cleansing agent and uses thereof” (Aptalis Pharma US, Inc., priority 2009, dated 2013):
Values joined by “and” are separate entries in the source; they are usually repeats but may differ in a detail not shown here. Identical values can stand only once.

Key:
[1] = Dissolution of solid L-glucose forms in water with consumer-like stirring; type: physicochemical; conditions: for Time of stirring until sample fully dissolved: 53 g in 240 mL doubly distilled water
Experimental: Each sample comprises approximately an equivalent amount of L-glucose on a weight basis. Carefully, to avoid agitation and mixing, doubly distilled water (240 mL) is added to each beaker. In one example, the solution is stirred immediately after addition of water. […] The stiffing was conducted in a manner duplicating the way a consumer is expected to stir a sample prior to use.

colon [2] = experiment: Open-label, historically controlled, single-dose study of L-glucose as colon-cleansing agent before colonoscopy (Raymer et al.); type: in vivo, human; conditions: 24-g single dose; equivalent of the 80% success rating
Experimental: For example, an open-label, historically controlled, single-dose study of a 24-g dose of L-glucose was conducted to determine the safety and effectiveness of L-glucose as a colon-cleansing agent before colonoscopy (Raymer et al., “An open-label trial of L-glucose as a colon-cleansing agent before colonoscopy,” Gastrointest Endosc 58(1):30-5, 2003).

colon [3] = experiment: Comparative Example 1: multicenter, double-blind, dose-range-finding study of L-glucose as colon-cleansing agent before colonoscopy; type: in vivo, human; conditions: single doses 12 g, 16 g, 20 g, 24 g; scale of Hsu et al.
Experimental: A multicenter, double-blind, dose-range-finding study to evaluate the effectiveness and safety of L-glucose as a colon-cleansing agent before colonoscopy was conducted. Doses used in this study were 12 g, 16 g, 20 g, and 24 g. The assessment of the preparations was based on the scale used in Hsu et al., “Meta-analysis and cost comparison of polyethylene glycol lavage versus sodium phosphate for colonoscopy preparation,” Gastrointestinal Endoscopy 48(3):276-282, 1998, wherein small bits of fecal material in the colon were allowed in an “Excellent” score.

colon [4] = experiment: Comparative Example 2: randomized, single-blind study of L-glucose as bowel preparation before colonoscopy (GPA scale); type: in vivo, human
Experimental: (§1) Global Preparation Assessment
(§2) Excellent=clean colon or small volume of clear liquid
(§3) Good=moderate to large volume of clear to semiclear liquid
(§4) Fair=some semisolid stool suctioned or washed away
(§5) Poor=semisolid or solid stool unable to be suctioned or washed away
A randomized, single-blind study designed to determine the clinical effectiveness of L-glucose as a bowel preparation before colonoscopy was performed. Three dose regimens were evaluated: 24 g in the evening only, 30 g in the evening only, and 24 g in the evening followed by 12 g in the morning (36 g total). Here, Applicant's GPA scale described herein was used to evaluate the preparations. […] Clinical efficacy (defined as a combination of “excellent” and “good” assessments) for the split-dose schedule was 19/27 (70%), as compared to 7/31 (23%) in the single-dose schedule (p<0.001).
As noted above in the description of Applicant's GPA scale, the criteria for determining whether a preparation was deemed “excellent” or “good” was respectively defined as “clean colon or small volume of clear liquid” or “moderate to large volume of clear to semi-clear liquid.” These criteria are more stringent than the rating system used by Raymer et al. discussed supra since Raymer's “excellent” and “good” ratings were respectively defined as “no more than small bits of adherent fecal fluid” and “small amounts of feces or fluid not interfering with the examination.” Thus, Raymer's “excellent” rating would likely not qualify as even a “good” rating in Applicant's GPA scale.

colon [5] = experiment: Example 3: open-label, 2-site dose-escalating split-dose study of L-glucose before colonoscopy (GPA and RSS); type: in vivo, human
Excerpt: Applicants have relied upon a combination of a categorical, 4-point scale and a numerical, segmental scoring system to assess bowel cleansing quality (Balaban et al. “Low volume bowel preparation for colonoscopy: randomized, endoscopist-blinded trial of liquid sodium phosphate versus tablet sodium phosphate,” Am J Gastroenterol 98:827-32, 2003). The basic 4-point scale, known as the Global Preparation Assessment (GPA), is essentially the same as the original scale used in the first randomized controlled trial of PHOSPHO-SODA™ as a bowel cleansing agent published in 1990 by Vanner, et al. (“A randomized prospective trial comparing oral sodium phosphate with standard polyethylene glycol-based lavage solution (Golytely) in the preparation of patients for colonoscopy,” Am J Gastroenterol 85:422-7, 1990). The numerical scoring system, known as the Residual Stool Score (RSS), is a continuously variable, averaged segmental scoring instrument that assesses both the amount and consistency of residual stool before suctioning (a measure of the cathartic activity of the bowel cleansing regimen) as well as the percent of the bowel wall seen after washing and cleansing (a measure of the ultimate endpoint for bowel preparation success). The two scales are shown below.
as §1, §2, §3, §4, §5
This open-label, 2-site study employed a dose-escalating design using 3 split doses of L-glucose (24 g/24 g, 36 g/36 g, and 48 g/48 g). The doses were administered the night before and the morning of a scheduled colonoscopy. The study was conducted in Phase I facilities to control for administration of L-glucose and adherence to the dietary and hydration regimen.
Three dose cohorts of 24 subjects were evenly divided between males and females for each cohort. Subjects who were scheduled to undergo an elective colonoscopy, who met the study entrance criteria, and who gave their consent to participate in the study were enrolled. […] Each subject observed a strict diet and hydration regimen as part of the study medication administration.
The site pharmacist prepared the L-glucose preparation based on the study medication preparation manual provided. Each subject, regardless of dose cohort, received the dose in 8 ounces of water, which was to be consumed within a 10-minute period. Dose cohorts proceeded in a dose-escalating fashion starting with the lowest dose (24 g/24 g) and escalated according to a dose escalation decision tree.
The physician performing the colonoscopy utilized Applicant's GPA scale to evaluate the quality of bowel preparation as before suctioning and washing.
The Residual Stool Score (RSS) described above was also used to assess bowel cleansing in each of the 5 segments of the bowel (rectum, descending colon, transverse colon, ascending colon, and cecum). As noted, assessments included the amount of stool present, the consistency of the stool, and the estimated percentage of the bowel wall visualized in each segment.
For reasons of inadequate bowel preparation, sections of the bowel that were not directly examined during colonoscopy were rated as “poor” on all three measures listed previously.
A total of 24 subjects were enrolled into each of the three dose cohorts. All 72 subjects were included in the intent-to-treat (ITT) and safety populations.

[6] = cited from earlier work
colon [7] = conditions: 24-g single dose; Raymer scale; cited from earlier work
[8] = cited from earlier work; remark: listed apart in the source
[9] = 48 g/48 g dose compared with lower split doses

## O.O=C[C@@H](O)[C@H](O)[C@@H](O)[C@@H](O)CO [L-glucose monohydrate]
[1]; 5 min. delay
  Observations: clusters or clumping of solid: Several clusters of solid at 1 min. Final solution
[1]; 5 min. delay before stirring, listed as L- glucose monohydrate^1, monohydrate
  Time of stirring until sample fully dissolved: Sample fully dissolved after 2.5 min. of stirring.
[1]; 5 min. delay before stirring, listed as L- glucose monohydrate^2, monohydrate
  Time of stirring until sample fully dissolved: Fully dissolved after 1 min. of stirring. Final
[1]; 5 min. delay, listed as L- glucose monohydrate^2, monohydrate
  Observations: appearance of final solution: solution was clear, colorless and homogeneous
[1]; No delay
  Observations: clusters or clumping of solid: Several clusters of solid at 1 min. Final solution
[1]; No delay (stirred immediately), listed as L- glucose monohydrate^1, monohydrate
  Time of stirring until sample fully dissolved: Sample fully dissolved after 2.5 min. of stirring.
[1]; No delay (stirred immediately), listed as L- glucose monohydrate^2, monohydrate
  Time of stirring until sample fully dissolved: Fully dissolved after 2 min. of stirring. Final
[1]; No delay, listed as L- glucose monohydrate^2, monohydrate
  Observations: appearance of final solution: solution was clear, colorless and homogeneous

## O=C[C@@H](O)[C@H](O)[C@@H](O)[C@@H](O)CO [L-glucose]
Colon [2]
  Failure rating: 20%
Colon [3]
  Acceptability as a colonic cleanser: not acceptable
Colon [4]; 24 g and 30 g evening only
  Outcome of the evening-only dose arms: suspended for lack of effectiveness
Colon [4]; in vivo
  Changes in laboratory test results: no clinically significant changes
  Commonly reported adverse events: generally absent or mild
  Overall tolerance to the bowel preparation: good or very good
Colon [5]; 24 g/24 g cohort
  Subjects with GPA rated Excellent (clean colon or small volume of clear liquid): 12 (50.0%) subjects (%) and 12 (50.0) subjects (%)
  Subjects with GPA rated Fair (some semisolid stool suctioned or washed away): 5 (20.8) subjects (%)
  Subjects with GPA rated Good (moderate to large volume of clear to semiclear liquid): 7 (29.2) subjects (%)
  Subjects with GPA rated Poor (semisolid or solid stool unable to be suctioned or washed away): 0 (0.0) subjects (%)
Colon [5]; 36 g/36 g cohort
  Subjects with GPA rated Excellent (clean colon or small volume of clear liquid): 14 (58.3%) subjects (%) and 14 (58.3) subjects (%)
  Subjects with GPA rated Fair (some semisolid stool suctioned or washed away): 2 (8.3) subjects (%)
  Subjects with GPA rated Good (moderate to large volume of clear to semiclear liquid): 7 (29.2) subjects (%)
  Subjects with GPA rated Poor (semisolid or solid stool unable to be suctioned or washed away): 1 (4.2%) subjects (%) and 1 (4.2) subjects (%)
Colon [5]; 48 g/48 g cohort
  Subjects with GPA rated Excellent (clean colon or small volume of clear liquid): 22 (91.7%) subjects (%) and 22 (91.7) subjects (%)
  Subjects with GPA rated Fair (some semisolid stool suctioned or washed away): 1 (4.2) subjects (%)
  Subjects with GPA rated Good (moderate to large volume of clear to semiclear liquid): 1 (4.2) subjects (%)
  Subjects with GPA rated Poor (semisolid or solid stool unable to be suctioned or washed away): 0 (0.0) subjects (%)
Colon [5]; [9]
  Robustness of bowel cleansing: more robust bowel cleansing
  Time to the first watery bowel movement: shortest time to the first watery bowel movement
Colon [5]; Site 01, all dose cohorts
  Subjects who had a complete colonoscopy: 30 (96.8%) subjects (%)
  Subjects with GPA rated poor: 1 (3.2%) subjects (%)
Colon [5]; Site 02, all dose cohorts
  Subjects who had a complete colonoscopy: 39 (95.1%) subjects (%)
Colon [5]; Total of all cohorts
  Subjects with GPA rated Excellent (clean colon or small volume of clear liquid): 48 (66.7) subjects (%)
  Subjects with GPA rated Fair (some semisolid stool suctioned or washed away): 8 (11.1) subjects (%)
  Subjects with GPA rated Good (moderate to large volume of clear to semiclear liquid): 15 (20.8) subjects (%)
  Subjects with GPA rated Poor (semisolid or solid stool unable to be suctioned or washed away): 1 (1.4) subjects (%)
Colon [5]; in each dose cohort (24 g/24 g, 36 g/36 g, 48 g/48 g)
  Subjects who had a complete colonoscopy (endoscopist able to reach the cecum): 23 (95.8%) subjects (%)
[6]; in vivo
  Effect of food restriction on the metabolism of L-glucose: no significant effect
[6]; mice, rats, dogs, rabbits, and monkeys
  Major route of L-glucose elimination: urinary excretion
Colon [7]
  Subjects with colonoscopy preparation grade of excellent or good: 80%
[8]
  Absorption from the human intestine: moderately absorbed
[8]; human
  Glucose or insulin response after administration: No significant glucose or insulin response
  Lower gastrointestinal symptoms (cramping, gas/flatus), mild: occurred in a majority of subjects
  Metabolism by colonic bacteria (breath hydrogen, comparable with in vitro studies): colonic bacteria do not metabolize
  Mild upper gastrointestinal symptoms (vomiting, nausea, belching/rifting, bloating): occurred in a minority of subjects

## OC[C@@H]1OC(O)[C@@H](O)[C@H](O)[C@H]1O (stereo partly drawn) [anhydrous L-glucose, reference compound]
[1]; 5 min. delay
  Observations: clusters or clumping of solid: Material clumped into a hard mass during time
[1]; No delay
  Observations: appearance of final solution: stirring. Clear solution results with latent
